Assay results taken from EP0514133A1, “Benzodiazepine derivatives, compositions containing them and their use in therapy” (priority 1991, dated 1992).
Like-named read-outs stand apart in the source and are kept apart here.

Experiments:
CCK receptor (pancreas) = biological target: T1, CCK receptor (pancreas) (Rattus norvegicus, UniProt P30551); assay: biochemical; type: binding; details: rat pancreas membranes; for IC50: 50 pM 125I-CCK-8, 25°C 2 hours
T1 construct: The whole pancreas was dissected free of fat tissue and was homogenized; from tissue; host or cells: rat pancreas membrane homogenate
T1 sequence (P30551 1-444): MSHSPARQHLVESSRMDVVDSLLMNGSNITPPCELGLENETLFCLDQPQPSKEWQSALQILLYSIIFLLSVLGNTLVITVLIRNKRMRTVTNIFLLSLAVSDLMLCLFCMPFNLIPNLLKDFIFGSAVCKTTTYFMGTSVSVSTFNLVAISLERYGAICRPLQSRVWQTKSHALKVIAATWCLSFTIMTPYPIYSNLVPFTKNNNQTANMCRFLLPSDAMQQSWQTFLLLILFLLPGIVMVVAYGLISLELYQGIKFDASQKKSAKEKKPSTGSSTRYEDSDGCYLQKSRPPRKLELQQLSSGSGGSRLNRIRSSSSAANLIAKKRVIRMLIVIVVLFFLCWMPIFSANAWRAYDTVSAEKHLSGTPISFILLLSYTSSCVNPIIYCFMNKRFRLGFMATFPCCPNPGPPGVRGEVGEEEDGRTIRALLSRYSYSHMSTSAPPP
Experimental: CCK-8 sulphated was radiolabelled with ¹²⁵I-Bolton Hunter reagent (2000 Ci/mmole). Receptor binding was performed according to Chang and Lotti (Proc. Natl. Acad. Sci. 83, 4923-4926, 1986) with minor modifications.
Male Sprague-Dawley rats (150-200g) were sacrificed by decapitation. The whole pancreas was dissected free of fat tissue and was homogenized in 25 volumes of ice-cold 10 mM N-2-hydroxyethyl-piperazine-N′-2-ethane sulphonic acid (HEPES) buffer with 0.1% soya bean trypsin inhibitor (pH 7.4 at 25°C) with a Kinematica Polytron. The homogenates were centrifuged at 47,800 g for 10 min. Pellets were resuspended in 10 volumes of binding assay buffer (20mM (HEPES)), 1mM ethylene glycol-bis-(β-aminoethylether-N,N′-tetraacetic acid) (EGTA), 5mM MgCl₂, 150 mM NaCl, bacitracin 0.25 mg/ml, soya bean trypsin inhibitor 0.1 mg/ml, and bovine serum albumin 2 mg/ml pH 6.5 at 25°C) using a Teflon (trademark) homogenizer, 15 strokes at 500 rpm. The homogenate was further diluted in binding assay buffer to give a final concentration of 0.5 mg original wet weight/1 ml buffer. […] All assays were run in duplicate. The reaction mixtures were incubated at 25°C for 2 hours and the reaction terminated by rapid filtration (Brandell 24 well cell harvester) over Whatman GF/C filters, washing 3 x 4 mls with ice-cold 100 Mm NaCl. The radioactivity on the filters was counted with a LKB gamma counter.
(§1) Drug displacement studies were performed with at least 10 concentrations of compounds of Formula I and the IC₅₀ values were determined by regression analysis IC₅₀ refers to the concentration of the compound required to inhibit 50% of specific binding of ¹²⁵I-CCK-8.

[1] = biological target: T2, CCK receptor (brain, cortex) (Cavia porcellus, UniProt H0VZC5); assay: biochemical; type: binding, guinea pig
T2 construct: the cortex was removed and homogenized in 25 mL ice-cold 0.32 M sucrose; from tissue; host or cells: guinea pig brain cortex P2 membrane pellet
T2 sequence (H0VZC5 1-426): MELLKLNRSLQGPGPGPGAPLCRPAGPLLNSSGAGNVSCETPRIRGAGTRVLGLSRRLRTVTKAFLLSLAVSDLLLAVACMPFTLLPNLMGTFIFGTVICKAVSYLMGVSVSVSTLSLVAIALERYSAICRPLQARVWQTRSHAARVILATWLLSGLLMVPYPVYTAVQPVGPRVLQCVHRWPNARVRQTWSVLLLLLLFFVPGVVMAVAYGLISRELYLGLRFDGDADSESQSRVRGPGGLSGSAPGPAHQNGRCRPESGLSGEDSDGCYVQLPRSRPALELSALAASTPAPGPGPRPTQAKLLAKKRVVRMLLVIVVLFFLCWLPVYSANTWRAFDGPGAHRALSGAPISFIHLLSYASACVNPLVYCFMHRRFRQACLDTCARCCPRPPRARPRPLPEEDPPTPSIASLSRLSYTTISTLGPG
Experimental: CCK-8 sulphated was radiolabelled and the binding was performed according to the description for the pancreas method with minor modifications.
Male Hartley guinea pigs (300-500g) were sacrificed by decapitation and the cortex was removed and homogenized in 25 mL ice-cold 0.32 M sucrose. The homogenates were centrifuged at 1000 g for 10 minutes and the resulting supernatant was recentrifuged at 20,000 g for 20 minutes. The P₂ pellet was resuspended in binding assay buffer (20mM HEPES, 5 mM MgCl₂, 0.25 mg/ml bacitracin, 1 mM EGTA pH 6.5 at 25°C), using a Teflon (trademark) homogenizer (5 strokes at 500 rpm) to give a final concentration of 10 mg original wet weight/1.2 ml buffer. […] All assays were run in duplicate. The reaction mixtures were incubated at 25°C for 2 hours and then the reaction was terminated by rapid filtration (Brandell 24 well cell harvester) on Whatman GF/C filters with 3 x 5 ml washes of cold 100 mM NaCl. The radioactivity on the filters was counted with a LKB gamma counter.
as §1

Gastrin Receptor = biological target: T3, Gastrin Receptor (Cavia porcellus, UniProt H0VZC5); assay: Gastrin Receptor Binding in Guinea Pig Gastric Glands, 125I-gastrin; design: from tissue; host or cells: isolated guinea pig gastric mucosal glands; details: 0.1 nM 125I-gastrin, 25°C 30 minutes
T3 sequence (H0VZC5 1-426): T2 sequence (H0VZC5 1-426)
Experimental: Gastrin antagonist activity of compounds of Formula I was determined using the following assay.
Guinea pig gastric mucosal glands were prepared by the procedure of Chang et. al., Science, 230, 177-179 (1985) with slight modifications. […] The tissues were passed twice through a 5 ml syringe to liberate the gastric glands, and then filtered through Nitex (trademark) #202 gauge nylon mesh. The filtered glands were centrifuged at 272 g for 5 minutes and washed twice by resuspension in 25 ml buffer and centrifugation.
The washed guinea pig gastric glands prepared as above were resuspended in 25 ml of standard buffer. For binding studies, to 250 µl of gastric glands, 30 µl of buffer (for total binding) or gastrin (3 µM final concentration, for nonspecific binding) or test compound and 20 µl of ¹²⁵I-gastrin (NEN, 2200 Ci/mmole, 0.1 nM final concentration) were added. All assays were run in triplicate. […] The reaction mixtures, after incubation at 25°C for 30 minutes in a shaking water bath were rapidly filtered (Brandell 24 well cell harvester) over Whatman G/F B filters presoaked in assay buffer and immediately washed further with 3 x 4 ml of 100 mM ice cold NaCl. The radioactivity on the filters was measured using a LKB gamma counter.

[2] = guinea pig cortex membranes, 50 pM 125I-CCK-8, 25°C 2 hours, read-out: IC50 ^125I-CCK Brain

Molecule: CN1C(=O)C(NC(=O)Nc2cccc(-c3nn[nH]n3)c2)N=C(C2CCCCC2)c2ccccc21 (racemic) [Example 4, N-[3(R,S)-5-Cyclohexyl-2,3-dihydro-1-methyl-2-oxo-1H-1,4-benzodiazepin-3-yl] N′-[3-tetrazol-5-ylphenyl]urea]
- IC50 (CCK receptor (pancreas)): 11 nM
- IC50 [1, 2]: 0.09 nM
- IC50 (Gastrin Receptor): 0.44 nM

Molecule: CC(=O)NS(=O)(=O)c1cccc(NC(=O)NC2N=C(C3CCCCC3)c3ccccc3N(C)C2=O)c1 (racemic) [Example 15, N-[3(R,S)-5-Cyclohexyl-2,3-dihydro-1-methyl-2-oxo-1H-1,4-benzodiazepin-3-yl] N′-[3-(methylcarbonylaminosulphonyl)phenyl] urea]
- IC50 (CCK receptor (pancreas)): 19.8 nM
- IC50 [1]: 0.4 nM
- IC50 (Gastrin Receptor): 1.06 nM

Molecule: CN1C(=O)C(NC(=O)Nc2cccc(S(=O)(=O)NC(=O)C(F)(F)F)c2)N=C(C2CCCCC2)c2ccccc21 (racemic) [Example 17, N-[3(R,S)-5-Cyclohexyl-2,3-dihydro-1-methyl-2-oxo-1H-1,4-benzodiazepin-3-yl] N′-[3-(trifluoromethylcarbonylaminosulphonyl)phenyl] urea]
- IC50 (CCK receptor (pancreas)): 137 nM
- IC50 [1, 2]: 0.9 nM
- IC50 (Gastrin Receptor): 10.5 nM

Molecule: CCN1C(=O)C(NC(=O)Nc2cccc(S(=O)(=O)NC(C)=O)c2)N=C(C2CCCC2)c2ccccc21 (racemic) [Example 20, N-[3(R,S)-5-Cyclopentyl-2,3-dihydro-1-ethyl-2-oxo-1H-1,4-benzodiazepin-3-yl] N′-[3-(methylcarbonylaminosulphonyl)phenyl] urea]
- IC50 (CCK receptor (pancreas)): 953 nM
- IC50 [1, 2]: 1.4 nM
- IC50 (Gastrin Receptor): 1.77 nM

Molecule: CN1C(=O)[C@H](NC(=O)Nc2cccc(C(=O)NS(=O)(=O)c3ccccc3)c2)N=C(C2CCCCC2)c2ccccc21 [Example 27, (-)-N-[3(R)-5-Cyclohexyl-2,3-dihydro-1-methyl-2-oxo-1H-1,4-benzodiazepin-3-yl] N′-[3-(phenylsulphonylaminocarbonyl)phenyl]urea]
- inhibition at 3 µM (CCK receptor (pancreas); at 3μM, read-out: inhibition of ^125I-CCK binding, Pancreas): 19%
- IC50 [1]: 0.38 nM
- IC50 (Gastrin Receptor): 1.34 nM

Molecule: N-(3(R,S)-5-Cyclopentyl-2,3-dihydro-1-methyl-2-oxo-1H-1,4-benzodiazepin-3-yl] N′-[3-(1,1-dimethylethylsulphonylaminocarbonyl)phenyl] urea [Example 39]
- IC50 (CCK receptor (pancreas)): 270 nM
- IC50 [1, 2]: 0.56 nM
- IC50 (Gastrin Receptor): 1.18 nM
